Results on 7 compounds are retold here after PubChem BioAssay (NCI).

Where “and” joins values, the source holds several entries; their conditions need not be identical. Equal values may be shown once.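 Assay format: 96-well plates, 48-hour exposure. GI50 is the concentration that inhibits growth by half. TGI is the concentration that stops growth completely.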

Among the test systems are MCF7 breast; HCC-2998 colon; M14 melanoma; BT-549 breast; SNB-75 CNS; UO-31 renal; UACC-62 melanoma; EKVX NSCLC; T-47D breast; RPMI-8226 leukemia.
Holding throughout (experiment): growth of human tumour cells (NCI), 48 h

Regarding `Oc1cc2ccccc2c(-c2c(O)c(O)cc3ccccc23)c1O`, the GI50 is 228 nM in the assay on MCF7 breast; 506 nM with HCC-2998 colon; 1400 nM in the assay on M14 melanoma; 4170 nM with BT-549 breast; 2230 nM with SNB-75 CNS; 512 nM with UO-31 renal. Besides, the GI50 with UACC-62 melanoma is 1260 nM; in the assay on EKVX NSCLC it was 1870 nM; in the assay with T-47D breast, 319 nM; in the assay on RPMI-8226 leukemia, 743 nM. Moreover, the TGI in the assay on MCF7 breast came out at 13000 nM; in the assay with HCC-2998 colon, 2610 nM; in the assay with M14 melanoma, 11400 nM; with BT-549 breast, 27800 nM; in the assay with SNB-75 CNS, 28100 nM; with UO-31 renal it was 6410 nM. For the same compound, the TGI with UACC-62 melanoma is 4230 nM; in the assay with EKVX NSCLC it was greater than 44400 nM; in the assay on T-47D breast, 14500 nM; in the assay on RPMI-8226 leukemia, greater than 28200 nM.

For `O=C(Nc1ccc(/C=C/c2ccc(NC(=O)c3cc(S(=O)(=O)O)c4cccnc4c3O)cc2S(=O)(=O)O)c(S(=O)(=O)O)c1)c1cc(S(=O)(=O)O)c2cccnc2c1O`, the GI50 in the assay on MCF7 breast is 38500 nM; in the assay on HCC-2998 colon, 97600 nM; in the assay with M14 melanoma, 7180 nM; in the assay on BT-549 breast, 21800 nM; with SNB-75 CNS, 8180 nM; in the assay on UO-31 renal it was 24500 nM. The GI50 in the assay on UACC-62 melanoma was 2500 nM; in the assay with EKVX NSCLC it was greater than 50900 nM; with T-47D breast, greater than 49600 nM; with RPMI-8226 leukemia, 27000 nM. Besides, the TGI is greater than 100000 nM in the assay on MCF7 breast; greater than 100000 nM in the assay on HCC-2998 colon; greater than 49000 nM in the assay on M14 melanoma; greater than 79800 nM in the assay on BT-549 breast; 48700 nM in the assay on SNB-75 CNS; greater than 69000 nM in the assay on UO-31 renal. In addition, the TGI was 37600 nM with UACC-62 melanoma, greater than 80500 nM in the assay with EKVX NSCLC, greater than 100000 nM with T-47D breast and greater than 65200 nM in the assay with RPMI-8226 leukemia.

As to `O=C1c2ccccc2-c2c1c1ccccc1c(=O)n2CCCNCCCCNCCCN1C(=O)c2ccccc2C2C(=O)c3ccccc3C21` (stereo unspecified), the GI50 with MCF7 breast was 36.1 nM; in the assay on HCC-2998 colon it was 194 nM; in the assay with M14 melanoma, 643 nM; with BT-549 breast, 854 nM; with SNB-75 CNS, 726 nM; with UO-31 renal it was 691 nM. The GI50 in the assay on UACC-62 melanoma is 666 nM; in the assay on EKVX NSCLC it was 358 nM; in the assay with T-47D breast, 643 nM; with RPMI-8226 leukemia, 8.58 nM. In addition, the TGI came out at 1900 nM in the assay with MCF7 breast; 908 nM in the assay with HCC-2998 colon; 1530 nM in the assay on M14 melanoma; 2040 nM in the assay with BT-549 breast; 1460 nM in the assay with SNB-75 CNS; 1850 nM with UO-31 renal. Moreover, the TGI in the assay with UACC-62 melanoma turned out to be 3250 nM; in the assay with EKVX NSCLC, 1050 nM; in the assay with T-47D breast, 1770 nM; with RPMI-8226 leukemia, 237 nM.

On to `CCCCCCCCC(=O)OCC(CS[As](C)C)OC(=O)CCCCCCCC` (stereo unspecified), for which the GI50 in the assay on MCF7 breast is 477 nM; with HCC-2998 colon, 356 nM; with M14 melanoma it was 831 nM; in the assay on BT-549 breast, 4780 nM; with SNB-75 CNS it was 5440 nM; in the assay on UO-31 renal, 3460 nM. The GI50 in the assay with UACC-62 melanoma is 904 nM; in the assay on EKVX NSCLC, 2450 nM; in the assay with T-47D breast it was 267 nM; with RPMI-8226 leukemia it was 330 nM. Further, the TGI in the assay on MCF7 breast is 8200 nM; in the assay on HCC-2998 colon, 1830 nM; in the assay on M14 melanoma, 12700 nM; in the assay with BT-549 breast it was 19100 nM; with SNB-75 CNS, 23500 nM; in the assay on UO-31 renal, greater than 39900 nM. The TGI in the assay on UACC-62 melanoma amounted to 15000 nM; in the assay on EKVX NSCLC, 19000 nM; with T-47D breast it was 20100 nM; in the assay with RPMI-8226 leukemia, 2160 nM.

As to `Cc1c(O)c2c(c(O)c1Br)C(=O)C=CC2=O`, the GI50 is 410 nM in the assay on MCF7 breast; 1010 nM with M14 melanoma; 2100 nM in the assay with SNB-75 CNS; 1380 nM in the assay on UO-31 renal; 1440 nM in the assay with UACC-62 melanoma; 138 nM in the assay with RPMI-8226 leukemia. For the same compound, the TGI is 399 nM and 1540 nM in the assay on MCF7 breast; 3310 nM and 3820 nM in the assay on HCC-2998 colon; 1110 nM and 2280 nM in the assay on M14 melanoma; 1300 nM with BT-549 breast; 2850 nM and 5070 nM in the assay with SNB-75 CNS; 1230 nM and 2950 nM in the assay on UO-31 renal. Further, the TGI is 2100 nM and 3210 nM in the assay on UACC-62 melanoma; 5210 nM in the assay with EKVX NSCLC; 2010 nM in the assay on T-47D breast; 1010 nM and 436 nM in the assay with RPMI-8226 leukemia.

On to `C[C@@H](Oc1ccc(C(=O)NS(=O)(=O)C(C)(C)C)cc1C(F)(F)F)c1ccc(Oc2ccccc2)cn1`, for which the GI50 with MCF7 breast is 2650 nM; with HCC-2998 colon, 2760 nM; with M14 melanoma it was 1910 nM; in the assay on BT-549 breast, 2060 nM; in the assay on SNB-75 CNS, 2040 nM; with UO-31 renal it was 4780 nM. In addition, the GI50 was 3090 nM in the assay on UACC-62 melanoma, 4350 nM with EKVX NSCLC, 4460 nM with T-47D breast and 2950 nM in the assay with RPMI-8226 leukemia. Besides, the TGI is 13600 nM in the assay with MCF7 breast; 11300 nM in the assay on HCC-2998 colon; 7570 nM with M14 melanoma; 5830 nM in the assay with BT-549 breast; 10800 nM with SNB-75 CNS; 19900 nM in the assay with UO-31 renal. Moreover, the TGI in the assay with UACC-62 melanoma turned out to be 19800 nM; with EKVX NSCLC, 20300 nM; in the assay with T-47D breast, 32500 nM; in the assay with RPMI-8226 leukemia it was 9870 nM.

`CCOc1cccc(-c2nc(N)nc(Nc3ccccc3SSc3ccccc3Nc3nc(N)nc(-c4cccc(OCC)c4)n3)n2)c1`: the GI50 in the assay with MCF7 breast is 4970 nM; in the assay with HCC-2998 colon, greater than 100000 nM; with M14 melanoma, 4100 nM; in the assay on BT-549 breast it was 4970 nM; with SNB-75 CNS, greater than 100000 nM; in the assay with UO-31 renal, 1680 nM. The GI50 is 2280 nM in the assay on UACC-62 melanoma, 3560 nM in the assay on EKVX NSCLC, 2420 nM in the assay on T-47D breast and 2180 nM with RPMI-8226 leukemia. The TGI with MCF7 breast is greater than 100000 nM; with HCC-2998 colon, greater than 100000 nM; with M14 melanoma, greater than 100000 nM; in the assay on BT-549 breast, greater than 100000 nM; with SNB-75 CNS, greater than 100000 nM; in the assay with UO-31 renal, 3160 nM. The TGI in the assay with UACC-62 melanoma was 5290 nM; with EKVX NSCLC, greater than 100000 nM; in the assay with T-47D breast it was greater than 100000 nM; with RPMI-8226 leukemia, 6890 nM.
